Data published in patent US20030032774A1, “Novel opioid peptides for the treatment of pain” (priority 1994, published 2003).
Read-outs that look alike come from different tables or passages of the source. Square brackets hold non-standard residues; d marks the D form. Peptide text beside a SMILES is read from it. Phe(4-NO2) = N[C@@H](Cc1ccc([N+](=O)[O-])cc1)C(=O)O; Phe(4-F) = N[C@@H](Cc1ccc(F)cc1)C(=O)O; 1Nal = N[C@@H](Cc1cccc2ccccc12)C(=O)O; 2Nal = N[C@@H](Cc1ccc2ccccc2c1)C(=O)O; Dmt = Cc1cc(O)cc(C)c1C[C@H](N)C(=O)O; dNle = CCCC[C@@H](N)C(=O)O; dNva = CCC[C@@H](N)C(=O)O

How the values were obtained:
[1] = system: PBQ induced writhing in mice; test: PBQ (phenylquinone)-induced writhing assay; assay type: in vivo, mouse; conditions: for Writhing ED50: Table 2, mouse; for ED50(PBQ): mouse s.c.
Method: The test was performed on CD #1 male mice weighing between 18 and 22 g. Mice were weighed, marked and then injected, by the intraperitoneal route, with 0.3 ml/20 g by weight of a solution of phenylquinone at 0.02%. The contortions which appeared during a 15 minute time period following the injection were counted. The phenylquinone was injected at time intervals of 5, 20 or 60 minutes after administration of the compound (or medium, or standard) by subcutaneous route. It was injected at time intervals of 60 minutes after the administration of the compound (or medium, or standard) by oral route;
The 0.02% phenylquinone solution was prepared as follows: 20 mg of phenylquinone was dissolved in 5 ml ethanol 90% (Sigma). The dissolved phenylquinone was slowly added to 95 ml of distilled water continuously shaken and preheated (not boiled). The phenylquinone solution was, at all times protected from light and a new solution was prepared every day for the test. Each group usually contained 10 mice. If an antagonist, such as naloxone, was used, it was administered 20 minutes before the compound (or the medium, or the standard) by the intraperitoneal route.
Writhing assays were performed on CD#1 male mice weighing between […]. Assays were carried out as described in Example 3 and results are summarized below in Table 2.

[2] = biological target: δ receptor (Rattus norvegicus, UniProt P33533); test: biochemical
Method: (§1) PBQ (phenyl-ρ-benzoquinone) induced writhing in mice is an assessment of both central and peripheral analgesia (see Sigmund, et al., Proc. Soc. Exp. Biol. Med. 95:729 (1957)). Central analgesia is determined by the inhibition of a hot-plate response in mice (see, Wolfe, et al., J. Pharmacol. Exp. Ther. 80:300 (1944)). Assays measuring opioid receptor binding affinities for μ and δ receptors as well as the GPI assay were determined through experimental protocol set out in Schiller et al. (Biophys. Res. Commun. 85:1322 (1975)). The references by Sigmund, et al., Wolfe, et al., and Schiller, et al. are each hereby incorporated by reference.
(§2) Male Sprague-Dawley rats weighing between 350-450 g were sacrificed by inhalation of CO2. The rats were decapitated and the brains (minus the cerebellum) were removed, placed in ice-cold saline solution, and then homogenized in ice-cold 50 mM Tris buffer pH 7.4 (10 ml/brain). Membranes were centrifuged at 14000 rpm for 30 min. at 4° C. The pellets were re-suspended in approximately 6 ml/brain of ice-cold Tris buffer 50 mM pH 7.4 and stored at −78° C. until ready for use. Protein quantification of the brain homogenate was conducted according to protein assay kit purchased (Bio-Rad).
(§3) (^3H)-DAMGO and (^3H)-DAGLE were used as radioligands for the μ and δ receptors, respectively. Radioligand 50 μl, membranes 100 μl, and serially diluted test compound were incubated for 1 hr at 22° C. Nonspecific binding was determined using a 500 fold excess of unlabeled ligand in the presence of tracer and membranes. Free ligand was separated from bound by filtration through Whatman GF/B paper (presoaked in polyethylenimine 1% aqueous solution) and rinsing with ice-cold 50 mM Tris pH 7.4 using a Brandel cell harvester. The filters were dried and radioactivity was counted in a 24 well microplate in the presence of 500 μl scintillant per well. Radioactivity was measured using a Wallace 1450 Microbeta counter. Ki's for the various compounds were determined from the IC50 according to the Cheng and Prusoff equation.

[3] = biological target: T1, μ receptor (Rattus norvegicus, UniProt P33535); test: Radioligand binding assay, μ opioid receptor ((3H)-DAMGO, brain membranes); conditions: for Binding Assay Kiδ Kiμ: selectivity ratio
T1 construct: the brains (minus the cerebellum) were removed, placed in ice-cold saline solution, and then homogenized; from tissue; host or cells: rat brain (minus cerebellum) membranes
Method: as §1, §2, §3

[4] = biological target: μ receptors (Cavia porcellus, UniProt P97266); test: Guinea Pig Ileum (GPI) assay, longitudinal muscle preparation
Method: The activity of the peptide compounds on μ receptors was determined using the Guinea Pig Ileum (GPI) assay (longitudinal muscle preparation) according to the procedures described in Schiller et al., Biophys. Res. Commun. 85:1322 (1975).

[5] = system: mice; test: Lethal effects / safety in mice; conditions: 1-5 mg kg−1 i.v. bolus dose
[6] = system: hot-plate response in mice; conditions: in vivo; for central analgesic effect in the mouse hot plate test: 100 mg/kg; for Hot Plate: sc

Sequence of μ receptors (P97266 whole entry, looked up): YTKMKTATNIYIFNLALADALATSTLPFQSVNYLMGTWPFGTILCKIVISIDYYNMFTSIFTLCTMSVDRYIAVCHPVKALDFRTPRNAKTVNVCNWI
Sequence of δ receptor (P33533 whole entry): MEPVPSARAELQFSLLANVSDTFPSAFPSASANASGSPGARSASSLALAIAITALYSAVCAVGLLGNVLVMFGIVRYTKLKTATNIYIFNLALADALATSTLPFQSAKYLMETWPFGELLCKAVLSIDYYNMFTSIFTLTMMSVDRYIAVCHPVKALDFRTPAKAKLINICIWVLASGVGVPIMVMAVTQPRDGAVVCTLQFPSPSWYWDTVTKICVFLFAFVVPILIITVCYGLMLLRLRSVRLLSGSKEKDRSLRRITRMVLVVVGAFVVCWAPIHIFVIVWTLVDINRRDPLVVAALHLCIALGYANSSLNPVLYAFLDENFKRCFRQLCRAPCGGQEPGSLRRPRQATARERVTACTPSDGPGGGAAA
T1 sequence (P33535 whole entry): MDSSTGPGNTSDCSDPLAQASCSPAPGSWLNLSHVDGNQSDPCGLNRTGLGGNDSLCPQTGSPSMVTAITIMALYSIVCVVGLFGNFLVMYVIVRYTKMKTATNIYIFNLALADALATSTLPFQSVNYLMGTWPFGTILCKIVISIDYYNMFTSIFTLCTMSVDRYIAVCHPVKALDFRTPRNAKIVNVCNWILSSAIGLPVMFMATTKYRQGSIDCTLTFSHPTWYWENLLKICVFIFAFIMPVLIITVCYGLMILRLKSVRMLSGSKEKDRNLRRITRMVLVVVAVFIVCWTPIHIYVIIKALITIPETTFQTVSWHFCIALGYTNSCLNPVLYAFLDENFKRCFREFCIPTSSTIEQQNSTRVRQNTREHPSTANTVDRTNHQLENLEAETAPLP

N=C(N)NCCC[C@@H](NC(=O)[C@@H](N)Cc1ccc(O)cc1)C(=O)N[C@@H](Cc1ccc(F)cc1)C(=O)N[C@@H](Cc1ccccc1)C(N)=O [Compound #2C, H-Tyr-D-Arg-Phe(pF)-Phe-NH2] (H-Y[dR][Phe(4-F)]F-NH2)
Writhing ED50 [1]: 0.3 mg/kg
Ki [2]: 952 nM
Ki ([3]; Binding Assay Kiμ, Table 2): 0.57 nM
Binding Assay Kiδ Kiμ ([3]; Table 2): 1671
IC50 ([4]; CPI IC50, Table 2): 1.52 nM

CCC[C@@H](NC(=O)[C@@H](N)Cc1ccc(O)cc1)C(=O)N[C@@H](Cc1ccccc1)C(=O)N[C@@H](Cc1ccccc1)C(N)=O [BCH2462, H-Tyr-D-Nva-Phe-Phe-NH2] (H-Y[dNva]FF-NH2)
lethal effects upon mice [5]: exhibited lethal effects
ED50(PBQ) ([1]; 20 min post administration): 2.7 mg/kg
central analgesic effect in the mouse hot plate test [6]: No central analgesic effect was observed
reaction time in the hot plate test ([6]; mouse): approximately 8 seconds
Hot Plate ([6]; mouse): >100 mg/kg

C[C@@H](NC(=O)[C@@H](N)Cc1ccc(O)cc1)C(=O)N[C@@H](Cc1ccccc1)C(=O)N[C@@H](Cc1ccccc1)C(N)=O [BCH1774, H-Tyr-D-Ala-Phe-Phe-NH2] (H-Y[dA]FF-NH2)
lethal effects upon mice [5]: exhibited lethal effects
duration of analgesic effect in writhing assay ([1]; 20 mg/kg s.c. BCH1774 vs 30 mg/kg s.c. BCH2463, FIG. 3): lasted longer than for BCH2463
Writhing ED50 [1]: 1.4 mg/kg
ED50(PBQ) ([1]; 20 min post administration): 1.4 mg/kg
Ki ([2]; read-out: Binding Assay Kiδ, Table 2): 626 nM
Hot Plate ([6]; mouse): >100 mg/kg
Ki ([3]; Table 1, read-out: Ki^μ): 1.53 nM
Ki ([3]; Table 2, read-out: Binding Assay Kiμ): 1.53 nM
Binding Assay Kiδ Kiμ ([3]; Table 2): 409
IC50 [4]: 3 nM

N=C(N)NCCC[C@@H](NC(=O)[C@@H](N)Cc1ccc(O)cc1)C(=O)N[C@@H](Cc1ccccc1)C(=O)N[C@@H](Cc1ccccc1)C(N)=O [BCH2687, H-Tyr-D-Arg-Phe-Phe-NH2] (H-Y[dR]FF-NH2)
Writhing ED50 [1]: 0.5 mg/kg
central analgesic effect in the mouse hot plate test [6]: No central analgesic effect was observed
reaction time in the hot plate test ([6]; mouse): approximately 8 seconds
Hot Plate ([6]; mouse): >100 mg/kg

N=C(N)NCCC[C@@H](NC(=O)[C@@H](N)Cc1ccc(O)cc1)C(=O)N[C@@H](Cc1ccc(F)cc1)C(=O)N[C@@H](Cc1ccc(F)cc1)C(N)=O [Compound #2B, H-Tyr-D-Arg-Phe(pF)-Phe(pF)-NH2] (H-Y[dR][Phe(4-F)][Phe(4-F)]-NH2)
Writhing ED50 [1]: 0.3 mg/kg
Ki [2]: > 1000 nM
Ki ([3]; Binding Assay Kiμ, Table 2): 0.22 nM

H-Y[dS]FF-NH2 [BCH2463]
ED50(PBQ) ([1]; 20 min post administration): 0.5 mg/kg
central analgesic effect in the mouse hot plate test [6]: No central analgesic effect was observed
reaction time in the hot plate test ([6]; mouse): about 9 seconds
Hot Plate ([6]; mouse): >100 mg/kg

Cc1cc(O)cc(C)c1C[C@H](N)C(=O)N[C@H](CO)C(=O)N[C@@H](Cc1ccccc1)C(=O)N[C@@H](Cc1ccccc1)C(N)=O [BCH2813, H-Dmt-D-Ser-Phe-Phe-NH2] (H-[Dmt][dS]FF-NH2)
ED50(PBQ) ([1]; 20 min post administration): 0.15 mg/kg
dose at which found to act centrally in the hot plate test ([6]; mouse): about 40 mg/kg

C[C@@H](NC(=O)[C@@H](N)Cc1ccc(O)cc1)C(=O)N[C@@H](Cc1ccc([N+](=O)[O-])cc1)C(=O)N[C@@H](Cc1ccc([N+](=O)[O-])cc1)C(N)=O [BCH1777, H-Tyr-D-Ala-Phe(4-NO2)-Phe(4-NO2)—NH2] (H-Y[dA][Phe(4-NO2)][Phe(4-NO2)]-NH2)
ED50(PBQ) ([1]; 20 min post administration): >20 mg/kg
Ki ([3]; Ki^μ, Table 1): 0.826 nM
IC50 ([4]; GPI(IC50), Table 1): 6 nM

C[C@@H](NC(=O)[C@@H](N)Cc1ccc(O)cc1)C(=O)N[C@@H](Cc1ccccc1)C(=O)N[C@@H](Cc1ccc([N+](=O)[O-])cc1)C(N)=O [BCH1776, H-Tyr-D-Ala-Phe-Phe(4-NO2)—NH2] (H-Y[dA]F[Phe(4-NO2)]-NH2)
ED50(PBQ) ([1]; 20 min post administration): 4 mg/kg
Ki ([3]; Ki^μ, Table 1): 0.509 nM
IC50 ([4]; GPI(IC50), Table 1): 8 nM

C[C@@H](NC(=O)[C@@H](N)Cc1ccc(O)cc1)C(=O)N[C@@H](Cc1ccc(F)cc1)C(=O)N[C@@H](Cc1ccc(F)cc1)C(N)=O [Compound #1B, H-Tyr-D-Ala-Phe(pF)-Phe(pF)-NH2] (H-Y[dA][Phe(4-F)][Phe(4-F)]-NH2)
Writhing ED50 [1]: 0.2 mg/kg
Ki [2]: 200 nM
Ki ([3]; Binding Assay Kiμ, Table 2): 0.2 nM
Binding Assay Kiδ Kiμ ([3]; Table 2): 998
IC50 ([4]; CPI IC50, Table 2): 0.12 nM

C[C@@H](NC(=O)[C@@H](N)Cc1ccc(O)cc1)C(=O)N[C@@H](Cc1ccccc1)C(=O)N[C@@H](Cc1ccc2ccccc2c1)C(N)=O [BCH757, H-Tyr-D-Ala-Phe-2′-Nal-NH2] (H-Y[dA]F[2Nal]-NH2)
ED50(PBQ) ([1]; 5 min.): 1.1 (5 min.) mg/kg
Ki ([3]; Ki^μ, Table 1): 0.655 nM
IC50 ([4]; GPI(IC50), Table 1): 2 nM

NC(=O)[C@H](Cc1ccccc1)NC(=O)[C@H](Cc1ccccc1)NC(=O)[C@@H](CS)NC(=O)[C@@H](N)Cc1ccc(O)cc1 [BCH2690, H-Tyr-D-Cys-Phe-Phe-NH2] (H-Y[dC]FF-NH2)
ED50(PBQ) ([1]; 20 min post administration): 6.2 mg/kg
Hot Plate ([6]; mouse): >100 mg/kg

C[C@@H](NC(=O)[C@@H](N)Cc1ccc(O)cc1)C(=O)N[C@@H](Cc1ccccc1)C(=O)N[C@@H](Cc1cccc2ccccc12)C(N)=O [BCH1782, H-Tyr-D-Ala-Phe-1′-Nal-NH2] (H-Y[dA]F[1Nal]-NH2)
ED50(PBQ) ([1]; 20 min post administration): >20 mg/kg
Ki ([3]; Ki^μ, Table 1): 0.981 nM
IC50 ([4]; GPI(IC50), Table 1): 2 nM

C[C@@H](NC(=O)[C@@H](N)Cc1ccc(O)cc1)C(=O)N[C@@H](Cc1ccc(F)cc1)C(=O)N[C@@H](Cc1ccccc1)C(N)=O [Compound #1C, H-Tyr-D-Ala-Phe(pF)-Phe-NH2] (H-Y[dA][Phe(4-F)]F-NH2)
Writhing ED50 [1]: 0.5 mg/kg
Ki [2]: 201 nM
Ki ([3]; Binding Assay Kiμ, Table 2): 0.36 nM
Binding Assay Kiδ Kiμ ([3]; Table 2): 559

CCCC[C@@H](NC(=O)[C@@H](N)Cc1ccc(O)cc1)C(=O)N[C@@H](Cc1ccccc1)C(=O)N[C@@H](Cc1ccccc1)C(N)=O [BCH755, H-Tyr-D-Nle-Phe-Phe-NH2] (H-Y[dNle]FF-NH2)
ED50(PBQ) ([1]; 5 min.): 2.5 (5 min.) mg/kg
Ki ([3]; Ki^μ, Table 1): 0.968 nM
IC50 ([4]; GPI(IC50), Table 1): 15 nM
